Reference: PubChem BioAssay (NCI)
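In this assay, cells in 96-well plates receive the compound at five concentrations for 48 hours. Endpoints are linearly interpolated between the surrounding concentrations. GI50 = concentration required for 50% inhibition of growth. TGI denotes the concentration required for complete inhibition of growth.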

Experiments:
Assay in all cases: growth of human tumour cells (NCI), 48 h
KM12 colon = test system: KM12 colon
786-0 renal = test system: 786-0 renal
PC-3 prostate = test system: PC-3 prostate
SK-MEL-28 melanoma = test system: SK-MEL-28 melanoma
DU-145 prostate = test system: DU-145 prostate
UACC-62 melanoma = test system: UACC-62 melanoma
A498 renal = test system: A498 renal
OVCAR-4 ovarian = test system: OVCAR-4 ovarian
K-562 leukemia = test system: K-562 leukemia
HL-60(TB) leukemia = test system: HL-60(TB) leukemia
BT-549 breast = test system: BT-549 breast
SNB-75 CNS = test system: SNB-75 CNS
SN12C renal = test system: SN12C renal
RXF 393 renal = test system: RXF 393 renal
NCI-H522 lung = test system: NCI-H522 lung
LOX IMVI melanoma = test system: LOX IMVI melanoma
HCT-15 colon = test system: HCT-15 colon
ACHN renal = test system: ACHN renal
T-47D breast = test system: T-47D breast
HOP-62 NSCLC = test system: HOP-62 NSCLC
OVCAR-8 ovarian = test system: OVCAR-8 ovarian
SK-MEL-2 melanoma = test system: SK-MEL-2 melanoma
MCF7 breast = test system: MCF7 breast
U251 CNS = test system: U251 CNS
HOP-92 NSCLC = test system: HOP-92 NSCLC
EKVX NSCLC = test system: EKVX NSCLC
HCT-116 colon = test system: HCT-116 colon
NCI-H460 lung = test system: NCI-H460 lung
SR leukemia = test system: SR leukemia
SF-295 CNS = test system: SF-295 CNS
SNB-19 CNS = test system: SNB-19 CNS
NCI-H226 lung = test system: NCI-H226 lung
HS 578T breast = test system: HS 578T breast
COLO 205 colon = test system: COLO 205 colon
MDA-MB-435 = test system: MDA-MB-435
SF-539 CNS = test system: SF-539 CNS
HCC-2998 colon = test system: HCC-2998 colon
SF-268 CNS = test system: SF-268 CNS
SK-OV-3 ovarian = test system: SK-OV-3 ovarian
OVCAR-3 ovarian = test system: OVCAR-3 ovarian
OVCAR-5 ovarian = test system: OVCAR-5 ovarian
HT29 colon = test system: HT29 colon
RPMI-8226 leukemia = test system: RPMI-8226 leukemia
CCRF-CEM leukemia = test system: CCRF-CEM leukemia
M14 melanoma = test system: M14 melanoma
IGROV1 ovarian = test system: IGROV1 ovarian
TK-10 renal = test system: TK-10 renal
CAKI-1 renal = test system: CAKI-1 renal
NCI-H23 lung = test system: NCI-H23 lung
NCI/ADR-RES ovarian = test system: NCI/ADR-RES ovarian
SK-MEL-5 melanoma = test system: SK-MEL-5 melanoma
SW-620 colon = test system: SW-620 colon
MOLT-4 leukemia = test system: MOLT-4 leukemia
MDA-MB-231 breast = test system: MDA-MB-231 breast
MALME-3M melanoma = test system: MALME-3M melanoma

`COc1cc2c(cc1OCCCN1CCN(c3cc(=O)oc4c(C)c(OC)ccc34)CC1)N=C[C@@H]1CCCN1C2=O` gave a GI50 (KM12 colon) of 1650 nM, a TGI (KM12 colon) of 9110 nM and a GI50 (786-0 renal) of 1050 nM. The TGI (786-0 renal) was 9620 nM, the GI50 (PC-3 prostate) was 1190 nM and the TGI (PC-3 prostate) was 12800 nM. For the same molecule, the GI50 (SK-MEL-28 melanoma) was 2560 nM, the TGI (SK-MEL-28 melanoma) was 8450 nM and the GI50 (DU-145 prostate) was 935 nM. The TGI (DU-145 prostate) was > 100000 nM, the GI50 (UACC-62 melanoma) was 1360 nM and the TGI (UACC-62 melanoma) was 2870 nM. For the same molecule, the GI50 (A498 renal) was 2020 nM, the TGI (A498 renal) was 3960 nM and the GI50 (OVCAR-4 ovarian) was 2000 nM. For the same molecule, the TGI (OVCAR-4 ovarian) was 10100 nM, the GI50 (K-562 leukemia) was 456 nM and the TGI (K-562 leukemia) was > 20900 nM. The GI50 (HL-60(TB) leukemia) was 456 nM, the TGI (HL-60(TB) leukemia) was 3830 nM and the GI50 (BT-549 breast) was 1210 nM. For the same molecule, the TGI (BT-549 breast) was 6960 nM, the GI50 (SNB-75 CNS) was 866 nM and the TGI (SNB-75 CNS) was 3220 nM. For the same molecule, the GI50 (SN12C renal) was 1600 nM, the TGI (SN12C renal) was 6510 nM and the GI50 (RXF 393 renal) was 424 nM. The TGI (RXF 393 renal) was 1020 nM, the GI50 (NCI-H522 lung) was 126 nM and the TGI (NCI-H522 lung) was 1930 nM. For the same molecule, the GI50 (LOX IMVI melanoma) was 826 nM, the TGI (LOX IMVI melanoma) was 6870 nM and the GI50 (HCT-15 colon) was 3060 nM. For the same molecule, the TGI (HCT-15 colon) was > 37600 nM, the GI50 (ACHN renal) was 1860 nM and the TGI (ACHN renal) was 4550 nM. For the same molecule, the GI50 (T-47D breast) was 1170 nM, the GI50 (HOP-62 NSCLC) was 1640 nM and the TGI (HOP-62 NSCLC) was 10300 nM. For the same molecule, the GI50 (OVCAR-8 ovarian) was 2620 nM, the TGI (OVCAR-8 ovarian) was > 100000 nM and the GI50 (SK-MEL-2 melanoma) was 1090 nM. For the same molecule, the TGI (SK-MEL-2 melanoma) was 3980 nM, the GI50 (MCF7 breast) was 787 nM and the TGI (MCF7 breast) was > 39700 nM. The GI50 (U251 CNS) was 1580 nM, the TGI (U251 CNS) was > 100000 nM and the GI50 (HOP-92 NSCLC) was 329 nM. For the same molecule, the TGI (HOP-92 NSCLC) was 1810 nM, the GI50 (EKVX NSCLC) was 4050 nM and the TGI (EKVX NSCLC) was > 47300 nM. The GI50 (HCT-116 colon) was 1160 nM, the TGI (HCT-116 colon) was 8940 nM and the GI50 (NCI-H460 lung) was 1450 nM. The TGI (NCI-H460 lung) was > 26400 nM, the GI50 (SR leukemia) was 248 nM and the TGI (SR leukemia) was 598 nM. The GI50 (SF-295 CNS) was 2490 nM, the TGI (SF-295 CNS) was > 30400 nM and the GI50 (SNB-19 CNS) was 2520 nM. For the same molecule, the TGI (SNB-19 CNS) was > 100000 nM, the GI50 (NCI-H226 lung) was 1880 nM and the TGI (NCI-H226 lung) was 4030 nM. For the same molecule, the GI50 (HS 578T breast) was 2350 nM, the TGI (HS 578T breast) was 15600 nM and the GI50 (COLO 205 colon) was 268 nM. For the same molecule, the TGI (COLO 205 colon) was 1430 nM, the GI50 (MDA-MB-435) was 1590 nM and the TGI (MDA-MB-435) was 3790 nM. The GI50 (SF-539 CNS) was 1730 nM, the TGI (SF-539 CNS) was 7970 nM and the GI50 (HCC-2998 colon) was 1440 nM. For the same molecule, the TGI (HCC-2998 colon) was 2890 nM, the GI50 (SF-268 CNS) was 910 nM and the TGI (SF-268 CNS) was > 20900 nM. For the same molecule, the GI50 (SK-OV-3 ovarian) was 10200 nM, the TGI (SK-OV-3 ovarian) was > 78400 nM and the GI50 (OVCAR-3 ovarian) was 471 nM. For the same molecule, the TGI (OVCAR-3 ovarian) was 3650 nM, the GI50 (OVCAR-5 ovarian) was 1340 nM and the TGI (OVCAR-5 ovarian) was > 100000 nM. For the same molecule, the GI50 (HT29 colon) was 1160 nM, the GI50 (RPMI-8226 leukemia) was 214 nM and the TGI (RPMI-8226 leukemia) was 1320 nM. The GI50 (CCRF-CEM leukemia) was 122 nM, the TGI (CCRF-CEM leukemia) was 1360 nM and the GI50 (M14 melanoma) was 1240 nM. For the same molecule, the TGI (M14 melanoma) was 2690 nM, the GI50 (IGROV1 ovarian) was 1570 nM and the TGI (IGROV1 ovarian) was 6050 nM. The GI50 (TK-10 renal) was 1670 nM, the TGI (TK-10 renal) was > 100000 nM and the GI50 (CAKI-1 renal) was 2460 nM. The TGI (CAKI-1 renal) was 7170 nM, the GI50 (NCI-H23 lung) was 1890 nM and the TGI (NCI-H23 lung) was 5200 nM. For the same molecule, the GI50 (NCI/ADR-RES ovarian) was 16600 nM, the TGI (NCI/ADR-RES ovarian) was > 88500 nM and the GI50 (SK-MEL-5 melanoma) was 1610 nM. For the same molecule, the TGI (SK-MEL-5 melanoma) was 3830 nM, the GI50 (SW-620 colon) was 1810 nM and the TGI (SW-620 colon) was > 100000 nM. For the same molecule, the GI50 (MOLT-4 leukemia) was 372 nM, the TGI (MOLT-4 leukemia) was 3700 nM and the GI50 (MDA-MB-231 breast) was 984 nM. For the same molecule, the TGI (MDA-MB-231 breast) was 5990 nM, the GI50 (MALME-3M melanoma) was 1160 nM and the TGI (MALME-3M melanoma) was 3590 nM.
